Reference: article PMC8999638, “Identification of Entry Inhibitors against Delta and Omicron Variants of SARS-CoV-2” (International Journal of Molecular Sciences, 2022)
Values joined by “and” are separate entries in the source; they are usually repeats but may differ in a detail not shown here. Equal entries are not always repeated. Structures can show the parent of a compound that is named as a salt. Where two headings read alike, the source gives them in different places.

Assays:
[1] = system: VERO E6 cells; details: for CC50: read-out: VeroE6 CC50, VERO E6 cells, CellTiter-Glo
[2] = system: NanoBiT; assay: Negative screening HiBiT assay (NanoBiT activity); type: cell-based; details: for Negative Screening HiBiT Assay % Inhibition (20 μM): 20 μM drug; for Negative Screening HiBiT Assay % Inhibition (100 μM): 100 μM drug; for Negative Screening HiBiT Assay INHIBIT NanoBiT: >70% inhibition in 100 μM, then including >35% inhibition at 20 μM
[3] = in vitro; details: African green monkey
[4] = biological target: RBD-ACE2 attachment (RBD of viral spike protein and ACE2 receptor) (Severe acute respiratory syndrome coronavirus 2, UniProt P0DTC2); assay: cell-based; parameters: species or system SARS-CoV-2; human; details: for inhibition at 20 µM / inhibition at 100 µM: HeLa; for inhibition at 20 µM: read-out: Positive Screening RBD Attachment Assay % Inhibition (20 μM); for inhibition at 100 µM: read-out: Positive Screening RBD Attachment Assay % Inhibition (100 μM)
[5] = system: spike-based pseudovirus (wild type) on SmBiT-ACE2 HeLa cells; assay: microbe, parasite or virus in culture; type: cell-based, SARS-CoV-2
[6] = system: SARS-CoV-2; assay: microbe, parasite or virus in culture; type: cell-based; details: for EC50: Severe acute respiratory syndrome coronavirus 2, Vero C1008, 120 h, read-out: EC50 SARS-CoV-2 PRNT
[7] = VeroE6 CC50, VERO E6 cells, CellTiter-Glo
[8] = Pseudovirus, HeLa, read-out: EC50 Pseudovirus Wild Type

| Compound | Negative Screening HiBiT Assay % Inhibition (20 μM) [2] | Negative Screening HiBiT Assay % Inhibition (100 μM) [2] | Negative Screening HiBiT Assay INHIBIT NanoBiT [2] | CC50 [3, 7] | Positive Screening RBD Attachment Assay Dose Response [4] | inhibition at 20 µM [4] | inhibition at 100 µM [4] | also measured |
| --- | --- | --- | --- | --- | --- | --- | --- | --- |
| Clc1ccc(COC(Cn2ccnc2)c2ccc(Cl)cc2Cl)c(Cl)c1 (centres unmarked) [Miconazole nitrate] | 3% | 12% | No |  |  |  |  | CC50 [1]: 16.9 µM |
| Clc1ccc(COC(Cn2ccnc2)c2ccc(Cl)cc2Cl)c(Cl)c1 (centres unmarked) [Miconazole] | 6% | 15% | No | 14 µM |  |  |  |  |
| COCCOC(=O)C1=C(C)NC(C)=C(C(=O)OC(C)C)C1c1cccc([N+](=O)[O-])c1 (centres unmarked) [Nimodipine] | 79% | 97% | Yes |  | Yes | 64% | 96% |  |
| O=C1C(O)=C([C@H]2CC[C@H](c3ccc(Cl)cc3)CC2)C(=O)c2ccccc21 [Atovaquone] | 54% | 96% | Yes |  | Yes | 39% | 95% |  |
| CC1(C)CCC(CN2CCN(c3ccc(C(=O)NS(=O)(=O)c4ccc(NCC5CCOCC5)c([N+](=O)[O-])c4)c(Oc4cnc5[nH]ccc5c4)c3)CC2)=C(c2ccc(Cl)cc2)C1 [ABT-199] | 0% | 43% | No | 17.3 µM | Yes | 51% | 96% | EC50 [4]: 39.1 µM |
| CC(C)(C)c1nc(-c2cccc(NS(=O)(=O)c3c(F)cccc3F)c2F)c(-c2ccnc(N)n2)s1 [Dabrafenib (GSK2118436), Dabrafenib] | 88% | 97% | Yes |  | Yes | 85% | 96% |  |
| O=C1CCc2ccc(OCCCCN3CCN(c4cccc(Cl)c4Cl)CC3)cc2N1 [Aripiprazole] | 13% | 21% | No | 14 µM |  |  |  |  |
| CCCCCCCCCCCCCCCC[N+](C)(C)CCN(Cc1ccc(OC)cc1)c1ncccn1 [Thonzonium Bromide] | 36% | 52% | Yes |  | Yes | 93% | 99% |  |
| Nc1ccc(/N=N/c2ccccc2)c(N)n1 [Phenazopyridine hydrochloride] | 48% | 83% | Yes |  | Yes | 52% | 91% |  |
| CC(=O)Oc1ccccc1C(=O)Nc1ncc([N+](=O)[O-])s1 [Nitazoxanide] | 77% | 95% | Yes |  | Yes | 69% | 93% |  |
| CCCC(=O)OCOC(=O)C1=C(C)NC(C)=C(C(=O)OC)C1c1cccc(Cl)c1Cl (centres unmarked) [Clevidipine butyrate] | 79% | 93% | Yes |  | Yes |  |  | Positive Screening RBD Attachment Assay % Inhibition (20 μM) [4]: 69%; Positive Screening RBD Attachment Assay % Inhibition (100 μM) [4]: 93% |
| COC(=O)C1=C(C)NC(C)=C(C(=O)OCCN(C)Cc2ccccc2)C1c1cccc([N+](=O)[O-])c1 (centres unmarked) [Nicardipine hydrochloride] | 64% | 88% | Yes |  | Yes | 58% | 86% |  |
| OCCOc1ccc(/C(=C(/CCCl)c2ccccc2)c2ccccc2)cc1 [Ospemifene] | 3% | 8% | No |  | Yes | 39% | 68% | Cytotoxicity to VeroE6 cells [1]: not toxic; CC50 ([3]; VeroE6 CC50): > 100 µM; EC50 ([4]; EC50 RBD Attachment): 56.2 µM |
| CCCCc1oc2ccc(NS(C)(=O)=O)cc2c1C(=O)c1ccc(OCCCN(CCCC)CCCC)cc1 [Dronedarone hydrochloride] | 21% | 86% | Yes |  | Yes | 41% | 93% |  |
| C[C@@H]1CCO[C@H]2Cn3cc(C(=O)NCc4ccc(F)cc4F)c(=O)c(O)c3C(=O)N12 [Dolutegravir sodium] | 1% | 62% | No | > 100 µM | Yes | > 70% | 96% | Cytotoxicity to VeroE6 cells ([1]; VeroE6 cells): not toxic; EC50 [4]: 14.6 µM; EC50 ([5]; Pseudovirus, HeLa, read-out: EC50 (nM) (Wild type)): 22.9 nM; EC50 [5, 8]: 40 nM; EC50 [6]: 4.2 µM |
| CN(C)c1ccc(C(=C2C=CC(=[N+](C)C)C=C2)c2ccc(N(C)C)cc2)cc1 [Crystal Violet] | 17% | 86% | Yes |  | Yes | 73% | 99% |  |
| CC[C@H](C)[C@H]1O[C@]2(CC[C@@H]1C)C[C@@H]1C[C@@H](C/C=C(\C)[C@@H](O[C@H]3C[C@H](OC)[C@@H](O[C@H]4C[C@H](OC)[C@@H](O)[C@H](C)O4)[C@H](C)O3)[C@@H](C)/C=C/C=C3\CO[C@@H]4[C@H](O)C(C)=C[C@@H](C(=O)O1)[C@]34O)O2 [Ivermectin] | 0% | 4% | No | 11.9 µM | Yes | 29% | 68% | EC50 ([4]; read-out: EC50 RBD Attachment): 22.8 µM; EC50 [5, 8]: 5900 nM; blocked SARS-CoV-2 infection (PRNT) ([6]; 10 μM): 60% |
| Cc1cc(C#N)cc(C)c1Oc1nc(Nc2ccc(C#N)cc2)nc(N)c1Br [Etravirine] | 0% | 31% | No | > 100 µM | Yes | > 70% | 90% | Cytotoxicity to VeroE6 cells ([1]; VeroE6 cells): not toxic; EC50 [4]: 2.3 µM; EC50 [5, 8]: 6 nM; EC50 ([5]; Pseudovirus, HeLa, read-out: EC50 pseudovirus neutralization assay): 5.8 nM; EC50 [6]: 7.7 µM |
| CCOC(=O)C1=C(C)NC(C)=C(C(=O)OC)C1c1cccc(Cl)c1Cl (centres unmarked) [Felodipine] | 88% | 99% | Yes |  | Yes | 63% | 96% |  |
| Gramicidin | 0% | 35% | No |  | Yes |  |  | CC50 [1]: 3.9 µM; Positive Screening RBD Attachment Assay % Inhibition (100 μM) [4]: 95%; EC50 ([4]; read-out: EC50 RBD Attachment): 5.3 µM; EC50 ([5]; read-out: EC50 Pseudovirus Wild Type): ~1200 nM and 1200 nM |
